# Counter-ions that a name gives are not always drawn. Like-named read-outs stand apart in the source and are kept apart here.
# Test system: stationary phase B. burgdorferi
# Experiment: SYBR Green I/PI viability assay (drug library screen, plate reader)
# Conditions: for viability at 50 µM: Borreliella burgdorferi, 168 h; for activity against stationary phase B. burgdorferi (in words): screen at 50 μM
# Procedure: Borrelia burgdorferi strain B31 (ATCC35210) was received from the […] (Manassas, Va., USA) and was grown in BSK-H medium (HiMedia Laboratories, Mumbai, India) and 6% rabbit serum (Sigma Aldrich, St. Louis, Mo., USA). The culture was filtered and sterilized using a […] and incubated in capped sterile 50 mL conical tubes (BD Biosciences, CA, USA) at 33° C. for 7 days without antibiotics until the culture reached stationary phase.
# The cultures were examined using a Nikon Eclipse E800 microscope with differential interference contrast and epifluorescent illumination. The pictures were captured using a SPOT slider color camera. A SYBR Green I/PI assay was used to assess the viability of the bacterial sample using the ratio of live to dead B. burgdorferi (measured with green and red fluorescence, respectively) as measured by a plate reader.
# Briefly, prediluted drug stock (10 μL) was added to 7 day old stationary phase B. burgdorferi culture (90 μL) to achieve a 50 μM final drug concentration per well. The plates were then incubated at 33° C. for 7 days at which point the SYBR/PI rapid viability assay was performed in a fluorescence plate reader to obtain the green-red fluorescence ratio.
# [1] = read-out: Residual viable cells (SYBR/PI), Table 3, drugs 50 μM, 7-day old stationary phase cells treated for 7 days
# [2] = Table 3, drugs 50 μM, 7-day old stationary phase cells treated for 7 days
# [3] = read-out: Residual viable cells (SYBR/PI)
# [4] = read-out: Residual viable cells (SYBR Green/PI), Table 1, drugs 50 μM, 7 day old stationary phase cells treated for 7 days
Structure (SMILES),viability at 50 µM [1],further results
"Cc1cn([C@H]2C=C[C@@H](CO)O2)c(=O)[nH]c1=O [2′,3′-Didehydro-3′-Deoxythymidine]",65%,–
"O=C(Nc1ccc(Cl)cc1)Nc1ccc(Cl)c(Cl)c1 [3,4,4′-Trichlorocarbanilide]",–,Residual viable cells (SYBR/PI) [2]: 45%
Nc1ccc(C(=O)O)c(O)c1 [4-Aminosalicylic acid],–,viability at 50 µM [3]: 66%
NC12CC3CC(CC(C3)C1)C2 [Amantadine hydrochloride],65%,"Residual viable cells (SYBR/PI) (Borrelia burgdorferi, 7 days, 50 μM): 69%"
NCC[C@H](O)C(=O)N[C@@H]1C[C@H](N)[C@@H](O[C@H]2O[C@H](CN)[C@@H](O)[C@H](O)[C@H]2O)[C@H](O)[C@H]1O[C@H]1O[C@H](CO)[C@@H](O)[C@H](N)[C@H]1O [Amikacin],57%,–
CC1(C)S[C@@H]2[C@H](NC(=O)[C@H](N)c3ccccc3)C(=O)N2[C@H]1C(=O)O [Ampicillin],64%,–
COc1ccc(C[C@H]2NC[C@H](O)[C@H]2OC(C)=O)cc1 [Anisomycin],–,Residual viable cells (SYBR/PI) [2]: 68%
C[C@H]1[C@H](OC(=O)CCC(=O)O)O[C@@H]2O[C@@]3(C)CC[C@H]4[C@H](C)CC[C@@H]1[C@@]24OO3 [Artesunate],58%,–
O=C(Cn1ccnc1[N+](=O)[O-])NCc1ccccc1 [Benznidazole],53%,–
"O=C(Nc1ccc(C(=O)O)c(O)c1)c1ccccc1 [Benzoylpas, 4-Benzamido salicylic acid, calcium salt]",55%,viability at 50 µM [4]: 55%
"O=C(O)CCNC(=O)c1ccccc1 [Betamipron (n-benzoyl-b-alanine), n-benzoyl-b-alanine]",68%,–
S=C=Nc1ccc(N=C=S)cc1 [Bitoscanate],–,viability at 50 µM (read-out: Residual viable cells (SYBR Green/PI)): 46%; viability at 50 µM [3]: 46%
Clc1ccc(CCC(Cn2ccnc2)Sc2c(Cl)cccc2Cl)cc1 (centres unmarked) [Butoconazole nitrate],74%,–
"CCCCCl [Butyl chloride (1-Chlorobutane), 1-Chlorobutane]",–,viability at 50 µM [3]: 41%; activity against stationary phase B. burgdorferi (in words) (7 days): very high activities
COC(=O)N/N=C/c1c[n+]([O-])c2ccccc2[n+]1[O-] [Carbadox],69%,–
"NS(=O)(=O)c1ccc(C(=O)O)cc1 [Carzenide (4-Carboxybenzenesulfonamide), 4-Carboxybenzenesulfonamide]",59%,–
NC(=O)c1cc[n+](CC2=C(C(=O)O)N3C(=O)[C@@H](NC(=O)[C@@H](c4ccccc4)S(=O)(=O)[O-])[C@H]3SC2)cc1 [Cefsulodin],60%,viability at 50 µM [4]: 60%
CC(=O)OCC1=C(C(=O)O)N2C(=O)[C@@H](NC(=O)CCC[C@@H](N)C(=O)O)[C@H]2SC1 [Cephalosporin C],–,Residual viable cells (SYBR/PI) [2]: 58%
Cc1cc(C2CCCCC2)n(O)c(=O)c1 [Ciclopirox olamine],66%,–
NC1CCN(c2c(F)cc3c(=O)c(C(=O)O)cn(C4CC4)c3c2Cl)C1 (centres unmarked) [Clinafloxacin],60%,–
CC(C)(C)CC(C)(C)c1ccc(O)c(Cc2ccc(Cl)cc2Cl)c1 [Clofoctol],73%,–

Structure (SMILES),viability at 50 µM [1],further results
Cc1nc(C)c(Cl)c(O)c1Cl [Clopidol],57%,–
Nc1cc(C(Cl)=C(Cl)Cl)c(S(N)(=O)=O)cc1S(N)(=O)=O [Clorsulon],71%,–
Cc1cc(C(C#N)c2ccc(Cl)cc2)c(Cl)cc1NC(=O)c1cc(I)cc(I)c1O (centres unmarked) [Closantel],56%,–
Clc1ccccc1C(c1ccccc1)(c1ccccc1)n1ccnc1 [Clotrimazole],68%,–
"Oc1ccc(Cl)c2cccnc12 [Cloxyquin (5-chloro-8-hydroxy-quinoline), 5-chloro-8-hydroxy-quinoline]",60%,–
N#CCC(=O)NN [Cyacetacide],61%,viability at 50 µM [4]: 61%
NC[C@@H]1CC[C@@H](N)[C@@H](O[C@H]2[C@H](O)[C@@H](O[C@H]3O[C@H](CO)[C@@H](O)[C@H](N)[C@H]3O)[C@H](N)C[C@@H]2N)O1 [Dibekacin],70%,–
N#CC(c1ccc(Cl)cc1)c1c(Cl)cc(-n2ncc(=O)[nH]c2=O)cc1Cl (centres unmarked) [Diclazuril],63%,–
"O=c1[nH]cnc2c1ncn2[C@H]1CC[C@@H](CO)O1 [Didanosine, 2′-3′-dideoxyinosine]",61%,viability at 50 µM [4]: 61%
CCCCCCCCCCCCCCCCCCCCCCO [Docosanol],55%,–
O=C1Nc2ccc(Cl)cc2[C@@](C#CC2CC2)(C(F)(F)F)O1 [Efavirenz],60%,–
CCOc1ccc2nc3cc(N)ccc3c(N)c2c1 [Ethacridine lactate],48%,viability at 50 µM [4]: 48%
CC(=O)OCC(CCn1cnc2cnc(N)nc21)COC(C)=O [Famciclovir],68%,–
CN1CCN(c2c(F)cc3c(=O)c(C(=O)O)cn(CCF)c3c2F)CC1 [Fleroxacin],73%,–
CS(=O)(=O)c1ccc([C@@H](O)[C@@H](CF)NC(=O)C(Cl)Cl)cc1 [Florfenicol],53%,–
"O=c1[nH]c(=O)n([C@H]2C[C@H](O)[C@@H](CO)O2)cc1F [Floxuridine, 5-fluorodeoxyuridine]",61%,viability at 50 µM [4]: 61%
COC(=O)Nc1nc2cc(C(=O)c3ccc(F)cc3)ccc2[nH]1 [Flubendazole],54%,viability at 50 µM [4]: 54%
Nc1nc(O)c2ncn(COC(CO)CO)c2n1 [Ganciclovir],53%,viability at 50 µM [4]: 53%
COC1=CC(=O)C[C@@H](C)[C@]12Oc1c(Cl)c(OC)cc(OC)c1C2=O [Griseofulvin],63%,viability at 50 µM [4]: 63%
CCN(CC)CCNc1ccc(CO)c2sc3ccccc3c(=O)c12 [Hycanthone],45%,viability at 50 µM [4]: 45%
CC(C)Cn1cnc2c(N)nc3ccccc3c21 [Imiquimod],–,viability at 50 µM [3]: 64%

Structure (SMILES),viability at 50 µM [1],further results
Nc1ccn([C@@H]2CS[C@H](CO)O2)c(=O)n1 [Lamivudine],58%,viability at 50 µM [4]: 58%
COC(=O)c1ccc(O)c2nc3c(C=O)c(O)cc(O)c3nc12 [Lomofungin],58%,–
C=N[C@@H](C(=O)N[C@@H]1C(=O)N2[C@@H]1SC(C)(C)[C@@H]2C(=O)O)c1ccccc1 [Metampicillin],57%,–
COP(=O)(OC)C(O)C(Cl)(Cl)Cl (centres unmarked) [Metrifonate],–,viability at 50 µM [3]: 51%
CCC(=O)O[C@@H]1CC(=O)O[C@H](C)C/C=C/C=C/[C@H](O)[C@H](C)C[C@H](CC=O)[C@H](O[C@@H]2O[C@H](C)[C@@H](O[C@H]3C[C@@](C)(O)[C@@H](OC(=O)CC)[C@H](C)O3)[C@H](N(C)C)[C@H]2O)[C@H]1OC [Midecamycin],54%,–
Cc1c(O)cccc1C(=O)N[C@@H](CSc1ccccc1)[C@H](O)CN1C[C@H]2CCCC[C@H]2C[C@H]1C(=O)NC(C)(C)C [Nelfinavir mesylate],66%,–
Cc1ccnc2c1NC(=O)c1cccnc1N2C1CC1 [Nevirapine],51%,viability at 50 µM [4]: 51%; activity against stationary phase B. burgdorferi (in words) (7 days): good activity
O=C(N/N=C/c1ccc([N+](=O)[O-])o1)c1cc([N+](=O)[O-])cc([N+](=O)[O-])c1O [Nifursol],51%,–
"O=[N+]([O-])c1ccc(O)c2ncccc12 [Nitroxoline (8-hydroxy 5-nitroquinoline), 8-hydroxy 5-nitroquinoline]",66%,–
C[C@@H]1[C@H](O)[C@@H](C)/C=C/C=C/CC/C=C/C=C/C=C/C=C/C(O[C@H]2O[C@H](C)[C@@H](O)[C@H](N)[C@@H]2O)CC2O[C@](O)(CC(O)C(O)CCC(O)CC(O)CC(O)CC(=O)O[C@H]1C)CC(O)C2C(=O)O (some centres unmarked) [Nystatin],–,"Residual viable cells (SYBR Green/PI) (Table 1, drugs 50 μM, 7 day old stationary phase cells treated for 7 days): 64%; Residual viable cells (SYBR/PI) [2]: 64%; activity against stationary phase B. burgdorferi (in words) (7 days): reasonable activity"
COC(=O)Nc1nc2ccc([S+]([O-])c3ccccc3)cc2[nH]1 (centres unmarked) [Oxfendazole],54%,viability at 50 µM [4]: 54%
CCCOc1ccc2nc(NC(=O)OC)[nH]c2c1 [Oxibendazole],51%,viability at 50 µM [4]: 51%
Clc1ccc(CO/N=C(\Cn2ccnc2)c2ccc(Cl)cc2Cl)c(Cl)c1 [Oxiconazole nitrate],62%,viability at 50 µM [4]: 62%
C[C@H]1COc2c(C3(N)CC3)c(F)cc3c(=O)c(C(=O)O)cn1c23 [Pazufloxacin],69%,–
[I-].[K+] [Potassium iodide],–,Residual viable cells (SYBR/PI) [2]: 65%
CCCc1cc(C(N)=S)ccn1 [Protionamide],63%,–
NC(=O)c1ncn([C@@H]2O[C@H](CO)[C@@H](O)[C@H]2O)n1 [Ribavirin],63%,viability at 50 µM [4]: 63%
"CCC[S+]([O-])c1ccc2[nH]c(NC(=O)OC)nc2c1 (centres unmarked) [Ricobendazole (Albendazole oxide), Albendazole oxide]",–,viability at 50 µM [3]: 57%
CO[C@H]1/C=C/O[C@@]2(C)Oc3c(C)c(O)c4c(O)c(c5c(nc6cc(C)ccn65)c4c3C2=O)NC(=O)/C(C)=C\C=C\[C@H](C)[C@H](O)[C@@H](C)[C@@H](O)[C@@H](C)[C@H](OC(C)=O)[C@@H]1C [Rifaximin],51%,–

# From US20190008848A1, “IDENTIFICATION OF ADDITIONAL ANTI-PERSISTER ACTIVITY AGAINST BORRELIA BURGDORFERI FROM AN FDA DRUG LIBRARY” (THE JOHNS HOPKINS UNIVERSITY, priority 2015, published 2019)
